For orientation: melting point means the temperature, or range, at which the solid turns liquid.

SMILES strings stand for the structures.

This note sets out measurements from patent US8637510B2, “Morpholinothiazoles as alpha 7 positive allosteric modulators” (Janssen Pharmaceutica NV, priority 2009, dated 2014).

Data set [1] deals with T1, human alpha 7-wt nAChR (Homo sapiens, UniProt P36544).
T1 construct: expressed in transfected cells
The data set is described as follows: Ca2+ flux imaging (FDSS) (Protocol B). Format: cell-based. Particulars: for Emax: efficacy of 100 μM choline defined as 100% in the absence of a PAM, read-out: a7-PAM-G_[33]_Eff_Curve_FI % Efficacy; for EC50: potentiation of 100 μM choline, compounds 0.01 μM to 30 μM, read-out: a7-PAM-G_[33]_pEC50 pEC50 (converted). The method, boiled down:
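PAM activity was measured as FDSS calcium fluorescence in α7-wt nAChR cells loaded with 2 μM Fluo-4AM, with compounds at 0.01–30 μM added alongside or 10 min ahead of sub-maximal 100 μM choline. Peak responses were normalised to choline-only efficacy, and EC50 was taken at half-maximal effect.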
(A change in cytosolic calcium serves as a functional read-out for many receptors and channels.)

T1 sequence (P36544 23-502): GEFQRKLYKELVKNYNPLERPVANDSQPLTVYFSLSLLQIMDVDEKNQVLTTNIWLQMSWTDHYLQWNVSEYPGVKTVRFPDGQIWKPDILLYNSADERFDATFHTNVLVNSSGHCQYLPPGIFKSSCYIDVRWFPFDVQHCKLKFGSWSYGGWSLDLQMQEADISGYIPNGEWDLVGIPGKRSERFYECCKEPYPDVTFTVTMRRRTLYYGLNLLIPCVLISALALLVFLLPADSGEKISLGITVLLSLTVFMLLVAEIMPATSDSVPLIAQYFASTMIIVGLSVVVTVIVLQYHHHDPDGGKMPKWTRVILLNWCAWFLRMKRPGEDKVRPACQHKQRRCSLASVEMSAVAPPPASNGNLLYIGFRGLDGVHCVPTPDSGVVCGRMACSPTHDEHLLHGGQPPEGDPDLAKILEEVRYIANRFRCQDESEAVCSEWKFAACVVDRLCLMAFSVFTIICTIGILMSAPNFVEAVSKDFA

For `Cc1ccc(-c2sc(N3C[C@@H](C)O[C@@H](C)C3)nc2CNC(=O)CC2CC2)cn1` [Compound 119, N-[[2-[(2R,6S)-2,6-dimethyl-4-morpholinyl]-5-(6-methyl-3-pyridinyl)-4-thiazolyl]methyl]-cyclopropaneacetamide], the melting point came out at 139 °C. In addition, in data set [1], the Emax worked out at 302% and the EC50 is 4.27 µM.
Molecule `Cc1ccc(-c2sc(N3C[C@@H](C)O[C@@H](C)C3)nc2CNC(=O)C2CCC2)cn1` [Compound 120, N-[[2-[(2R,6S)-2,6-dimethyl-4-morpholinyl]-5-(6-methyl-3-pyridinyl)-4-thiazolyl]methyl]-cyclobutanecarboxamide] registered a melting point of 139 °C. The Emax in data set [1] came to 567%.
Molecule `Cc1ccc(-c2sc(N3C[C@@H](C)O[C@@H](C)C3)nc2CNC(=O)c2ccccc2Cl)cn1` [Compound 121, 2-chloro-N-[[2-[(2R,6S)-2,6-dimethyl-4-morpholinyl]-5-(6-methyl-3-pyridinyl)-4-thiazolyl]methyl]-benzamide] came in with a melting point of 152 °C. For the same molecule, in data set [1], the Emax was found to be 356% and the EC50 is 2.04 µM.
For the molecule `Cc1ccc(-c2sc(N3C[C@@H](C)O[C@@H](C)C3)nc2CNC(=O)c2cccc(Cl)c2)cn1` [Compound 122, 3-chloro-N-[[2-[(2R,6S)-2,6-dimethyl-4-morpholinyl]-5-(6-methyl-3-pyridinyl)-4-thiazolyl]methyl]-benzamide], the melting point turned out to be 167 °C. Further, in data set [1], the Emax amounted to 473% and the EC50 was 1 µM.
In the case of `Cc1ccc(-c2sc(N3C[C@@H](C)O[C@@H](C)C3)nc2CNC(=O)c2ccc(Cl)cc2)cn1` [Compound 123, 4-chloro-N-[[2-[(2R,6S)-2,6-dimethyl-4-morpholinyl]-5-(6-methyl-3-pyridinyl)-4-thiazolyl]methyl]-benzamide], the melting point amounted to 208 °C. Also, in data set [1], the Emax amounted to 636% and the EC50 is 0.389 µM.
The corresponding values for `Cc1ccc(-c2sc(N3C[C@@H](C)O[C@@H](C)C3)nc2CNC(=O)c2cccc(F)c2)cn1` [Compound 125, N-[[2-[(2R,6S)-2,6-dimethyl-4-morpholinyl]-5-(6-methyl-3-pyridinyl)-4-thiazolyl]methyl]-3-fluoro-benzamide] are 147 °C, 428% and 0.851 µM.
The corresponding values for `Cc1ccc(-c2sc(N3C[C@@H](C)O[C@@H](C)C3)nc2CNC(=O)c2ccc(F)cc2)cn1` [Compound 126, N-[[2-[(2R,6S)-2,6-dimethyl-4-morpholinyl]-5-(6-methyl-3-pyridinyl)-4-thiazolyl]methyl]-4-fluoro-benzamide] are 195 °C, 655% and 1.66 µM.
Molecule `Cc1cc(-c2sc(N3C[C@@H](C)O[C@@H](C)C3)nc2CNC(=O)c2cc(C)oc2C)cc(C)n1` [Compound 146, N-[[2-[(2R,6S)-2,6-dimethyl-4-morpholinyl]-5-(2,6-dimethyl-4-pyridinyl)-4-thiazolyl]methyl]-2,5-dimethyl-3-furancarboxamide] showed a melting point of 131 °C. Further, the EC50 in data set [1] was 0.977 µM.
The corresponding values for `Cc1cc(-c2sc(N3C[C@@H](C)O[C@@H](C)C3)nc2CNC(=O)c2occc2C)cc(C)n1` [Compound 147, N-[[2-[(2R,6S)-2,6-dimethyl-4-morpholinyl]-5-(2,6-dimethyl-4-pyridinyl)-4-thiazolyl]methyl]-3-methyl-2-furancarboxamide] are 149 °C and 0.912 µM.
In turn, `Cc1cc(-c2sc(N3C[C@@H](C)O[C@@H](C)C3)nc2CNC(=O)c2ccno2)cc(C)n1` [Compound 149, N-[[2-[(2R,6S)-2,6-dimethyl-4-morpholinyl]-5-(2,6-dimethyl-4-pyridinyl)-4-thiazolyl]methyl]-5-isoxazolecarboxamide] registered a melting point of 164 °C. For the same molecule, in data set [1], the EC50 was 1.62 µM.
For the molecule `Cc1cc(-c2sc(N3C[C@@H](C)O[C@@H](C)C3)nc2CNC(=O)c2sccc2C)cc(C)n1` [Compound 150, N-[[2-[(2R,6S)-2,6-dimethyl-4-morpholinyl]-5-(2,6-dimethyl-4-pyridinyl)-4-thiazolyl]methyl]-3-methyl-2-thiophenecarboxamide], the melting point is 184 °C. In data set [1], the Emax was found to be 894% and the EC50 was 0.427 µM.
The corresponding values for `Cc1cc(-c2sc(N3C[C@@H](C)O[C@@H](C)C3)nc2CNC(=O)c2oc(C)nc2C)cc(C)n1` [Compound 159, N-[[2-[(2R,6S)-2,6-dimethyl-4-morpholinyl]-5-(2,6-dimethyl-4-pyridinyl)-4-thiazolyl]methyl]-2,4-dimethyl-5-oxazolecarboxamide] are 193 °C, 704% and 9.77 µM.
Turning to `Cc1cc(-c2sc(N3C[C@@H](C)O[C@@H](C)C3)nc2CNC(=O)c2cnn(C)c2C)cc(C)n1` [Compound 160, N-[[2-[(2R,6S)-2,6-dimethyl-4-morpholinyl]-5-(2,6-dimethyl-4-pyridinyl)-4-thiazolyl]methyl]-1,5-dimethyl-1H-pyrazole-4-carboxamide], the melting point was 169 °C. Moreover, the EC50 in data set [1] was 8.13 µM.
Turning to `Cc1cc(-c2sc(N3C[C@@H](C)O[C@@H](C)C3)nc2CNC(=O)c2ncoc2C)cc(C)n1` [Compound 161, N-[[2-[(2R,6S)-2,6-dimethyl-4-morpholinyl]-5-(2,6-dimethyl-4-pyridinyl)-4-thiazolyl]methyl]-5-methyl-4-oxazolecarboxamide], the melting point is 201 °C. Also, in data set [1], the Emax turned out to be 509% and the EC50 is 5.13 µM.
In turn, `Cc1cc(-c2sc(N3C[C@@H](C)O[C@@H](C)C3)nc2CNC(=O)c2c(C)noc2C(F)(F)F)cc(C)n1` [Compound 163, N-[[2-[(2R,6S)-2,6-dimethyl-4-morpholinyl]-5-(2,6-dimethyl-4-pyridinyl)-4-thiazolyl]methyl]-3-methyl-5-(trifluoromethyl)-4-isoxazolecarboxamide] had a melting point of 176 °C. The Emax in data set [1] is 142%.
With `Cc1cc(-c2sc(N3C[C@@H](C)O[C@@H](C)C3)nc2CNC(=O)c2csc(C)c2C)cc(C)n1` [Compound 164, N-[[2-[(2R,6S)-2,6-dimethyl-4-morpholinyl]-5-(2,6-dimethyl-4-pyridinyl)-4-thiazolyl]methyl]-4,5-dimethyl-3-thiophenecarboxamide], the melting point was determined as 200 °C. For the same molecule, the EC50 in data set [1] is 0.166 µM.
Molecule `Cc1cc(-c2sc(N3C[C@@H](C)O[C@@H](C)C3)nc2CNC(=O)c2onc(C)c2C)cc(C)n1` [Compound 171, N-[[2-[(2R,6S)-2,6-dimethyl-4-morpholinyl]-5-(2,6-dimethyl-4-pyridinyl)-4-thiazolyl]methyl]-3,4-dimethyl-5-isoxazolecarboxamide] registered a melting point of 192 °C. Moreover, in data set [1], the Emax is 669% and the EC50 is 1.62 µM.
The corresponding values for `Cc1cc(-c2sc(N3C[C@@H](C)O[C@@H](C)C3)nc2CNC(=O)c2nn(C)cc2C)cc(C)n1` [Compound 172, N-[[2-[(2R,6S)-2,6-dimethyl-4-morpholinyl]-5-(2,6-dimethyl-4-pyridinyl)-4-thiazolyl]methyl]-1,4-dimethyl-1H-pyrazole-3-carboxamide] are 165 °C, 292% and 2.63 µM.
The corresponding values for `Cc1cc(-c2sc(N3C[C@@H](C)O[C@@H](C)C3)nc2CNC(=O)c2nocc2C)cc(C)n1` [Compound 174, N-[[2-[(2R,6S)-2,6-dimethyl-4-morpholinyl]-5-(2,6-dimethyl-4-pyridinyl)-4-thiazolyl]methyl]-4-methyl-3-isoxazolecarboxamide] are 145 °C, 956% and 0.537 µM.
Molecule `Cc1cc(-c2sc(N3C[C@@H](C)O[C@@H](C)C3)nc2CNC(=O)c2ccon2)cc(C)n1` [Compound 180, N-[[2-[(2R,6S)-2,6-dimethyl-4-morpholinyl]-5-(2,6-dimethyl-4-pyridinyl)-4-thiazolyl]methyl]-3-isoxazolecarboxamide] returned a melting point of 179 °C. In addition, the EC50 in data set [1] is 1.91 µM.
Molecule `Cc1cc(-c2sc(N3CCOC[C@@H]3C)nc2CNC(=O)c2ccc(F)cc2C)cc(C)n1` [Compound 184, N-[[5-(2,6-dimethyl-4-pyridinyl)-2-[(3S)-3-methyl-4-morpholinyl]-4-thiazolyl]methyl]-4-fluoro-2-methyl-benzamide] yielded a melting point of 156 °C. For the same molecule, in data set [1], the Emax was found to be 974% and the EC50 was 0.562 µM.
On to `Cc1cc(-c2sc(N3CCOC[C@@H]3C)nc2CNC(=O)CC2CC2)cc(C)n1` [Compound 187, N-[[5-(2,6-dimethyl-4-pyridinyl)-2-[(3S)-3-methyl-4-morpholinyl]-4-thiazolyl]methyl]-cyclopropaneacetamide], for which the melting point amounted to 138 °C. For the same molecule, in data set [1], the Emax came out at 994% and the EC50 was 5.25 µM.
As to `Cc1cc(-c2sc(N3CCOC[C@@H]3C)nc2CNC(=O)CC(C)C)cc(C)n1` [Compound 189, N-[[5-(2,6-dimethyl-4-pyridinyl)-2-[(3S)-3-methyl-4-morpholinyl]-4-thiazolyl]methyl]-3-methyl-butanamide], the melting point is 151 °C. Also, in data set [1], the EC50 was 1.51 µM.
The corresponding values for `Cc1cc(C(=O)NCc2nc(N3C[C@@H](C)O[C@@H](C)C3)sc2-c2ccnc(C(F)(F)F)c2)no1` [Compound 199, N-[[2-[(2R,6S)-2,6-dimethyl-4-morpholinyl]-5-[2-(trifluoromethyl)-4-pyridinyl]-4-thiazolyl]methyl]-5-methyl-3-isoxazolecarboxamide] are 228 °C and 0.219 µM.
